# Tested on: Transport facilitation protein genes
# Test: DNA chip mRNA expression in yeast, transport facilitation protein genes (Table 5)
# Type: cell-based, Saccharomyces cerevisiae S288C
# Procedure, shortened: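 S. cerevisiae S288C grown at 25° C in YPD were exposed in log phase for two hours to one toxic chemical at a growth-inhibiting, non-lethal concentration; untreated cells served as control. Poly(A) mRNA was reverse-transcribed with Cy3/Cy5-dUTP and hybridized to a whole-genome yeast DNA chip at 65° C for over 12 hours; values are fluorescence ratios versus untreated.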
compound,measurement,setting,value
"S=C([S-])NCCNC(=S)[S-].[Zn+2] [(11), zinc N,N′-ethylenebis(dithiocarbamate)]",The level of expressed mRNA in the presence of chemical substance/The level of expressed mRNA in the absence of chemical substance,yeast gene YBL030C,1.1
same,The level of expressed mRNA in the presence of chemical substance/The level of expressed mRNA in the absence of chemical substance,yeast gene YBL099W,2.1
same,The level of expressed mRNA in the presence of chemical substance/The level of expressed mRNA in the absence of chemical substance,yeast gene YBR052C,1.7
same,The level of expressed mRNA in the presence of chemical substance/The level of expressed mRNA in the absence of chemical substance,yeast gene YBR068C,0.8
same,The level of expressed mRNA in the presence of chemical substance/The level of expressed mRNA in the absence of chemical substance,yeast gene YBR127C,1.1
same,The level of expressed mRNA in the presence of chemical substance/The level of expressed mRNA in the absence of chemical substance,yeast gene YBR132C,1.9
same,The level of expressed mRNA in the presence of chemical substance/The level of expressed mRNA in the absence of chemical substance,yeast gene YBR207W,1.1
same,The level of expressed mRNA in the presence of chemical substance/The level of expressed mRNA in the absence of chemical substance,yeast gene YBR293W,1.1
same,The level of expressed mRNA in the presence of chemical substance/The level of expressed mRNA in the absence of chemical substance,yeast gene YBR294W,1.2
same,The level of expressed mRNA in the presence of chemical substance/The level of expressed mRNA in the absence of chemical substance,yeast gene YBR295W,1.1
same,The level of expressed mRNA in the presence of chemical substance/The level of expressed mRNA in the absence of chemical substance,yeast gene YBR298C,1.5
same,The level of expressed mRNA in the presence of chemical substance/The level of expressed mRNA in the absence of chemical substance,yeast gene YCL025C,1.0
same,The level of expressed mRNA in the presence of chemical substance/The level of expressed mRNA in the absence of chemical substance,yeast gene YCL038C,2.0
same,The level of expressed mRNA in the presence of chemical substance/The level of expressed mRNA in the absence of chemical substance,yeast gene YCR024C-A,1.5
same,The level of expressed mRNA in the presence of chemical substance/The level of expressed mRNA in the absence of chemical substance,yeast gene YCR037C,0.8
same,The level of expressed mRNA in the presence of chemical substance/The level of expressed mRNA in the absence of chemical substance,yeast gene YCR098C,1.3
same,The level of expressed mRNA in the presence of chemical substance/The level of expressed mRNA in the absence of chemical substance,yeast gene YDL128W,1.2
same,The level of expressed mRNA in the presence of chemical substance/The level of expressed mRNA in the absence of chemical substance,yeast gene YDL198C,2.5
same,The level of expressed mRNA in the presence of chemical substance/The level of expressed mRNA in the absence of chemical substance,yeast gene YDL210W,0.6
same,The level of expressed mRNA in the presence of chemical substance/The level of expressed mRNA in the absence of chemical substance,yeast gene YDL245C,1.5
same,The level of expressed mRNA in the presence of chemical substance/The level of expressed mRNA in the absence of chemical substance,yeast gene YDR038C,0.9
same,The level of expressed mRNA in the presence of chemical substance/The level of expressed mRNA in the absence of chemical substance,yeast gene YDR039C,0.9
same,The level of expressed mRNA in the presence of chemical substance/The level of expressed mRNA in the absence of chemical substance,yeast gene YDR086C,1.1
same,The level of expressed mRNA in the presence of chemical substance/The level of expressed mRNA in the absence of chemical substance,yeast gene YDR270W,1.0
same,The level of expressed mRNA in the presence of chemical substance/The level of expressed mRNA in the absence of chemical substance,yeast gene YDR298C,1.2
same,The level of expressed mRNA in the presence of chemical substance/The level of expressed mRNA in the absence of chemical substance,yeast gene YDR342C,2.9
same,The level of expressed mRNA in the presence of chemical substance/The level of expressed mRNA in the absence of chemical substance,yeast gene YDR343C,2.3
same,The level of expressed mRNA in the presence of chemical substance/The level of expressed mRNA in the absence of chemical substance,yeast gene YDR345C,1.5
same,The level of expressed mRNA in the presence of chemical substance/The level of expressed mRNA in the absence of chemical substance,yeast gene YDR387C,2.0
same,The level of expressed mRNA in the presence of chemical substance/The level of expressed mRNA in the absence of chemical substance,yeast gene YDR497C,0.7
same,The level of expressed mRNA in the presence of chemical substance/The level of expressed mRNA in the absence of chemical substance,yeast gene YEL027W,0.9
same,The level of expressed mRNA in the presence of chemical substance/The level of expressed mRNA in the absence of chemical substance,yeast gene YEL063C,0.8
same,The level of expressed mRNA in the presence of chemical substance/The level of expressed mRNA in the absence of chemical substance,yeast gene YEL065W,0.6
same,The level of expressed mRNA in the presence of chemical substance/The level of expressed mRNA in the absence of chemical substance,yeast gene YER053C,2.4
same,The level of expressed mRNA in the presence of chemical substance/The level of expressed mRNA in the absence of chemical substance,yeast gene YER119C,2.2
same,The level of expressed mRNA in the presence of chemical substance/The level of expressed mRNA in the absence of chemical substance,yeast gene YFL011W,2.1
same,The level of expressed mRNA in the presence of chemical substance/The level of expressed mRNA in the absence of chemical substance,yeast gene YFL041W,0.9
same,The level of expressed mRNA in the presence of chemical substance/The level of expressed mRNA in the absence of chemical substance,yeast gene YFL050C,1.2
same,The level of expressed mRNA in the presence of chemical substance/The level of expressed mRNA in the absence of chemical substance,yeast gene YFL054C,1.7
same,The level of expressed mRNA in the presence of chemical substance/The level of expressed mRNA in the absence of chemical substance,yeast gene YFL055W,2.7
same,The level of expressed mRNA in the presence of chemical substance/The level of expressed mRNA in the absence of chemical substance,yeast gene YGL006W,0.8
same,The level of expressed mRNA in the presence of chemical substance/The level of expressed mRNA in the absence of chemical substance,yeast gene YGL008C,0.7
same,The level of expressed mRNA in the presence of chemical substance/The level of expressed mRNA in the absence of chemical substance,yeast gene YGL104C,1.8
same,The level of expressed mRNA in the presence of chemical substance/The level of expressed mRNA in the absence of chemical substance,yeast gene YGL167C,0.8
same,The level of expressed mRNA in the presence of chemical substance/The level of expressed mRNA in the absence of chemical substance,yeast gene YGL255W,0.5
same,The level of expressed mRNA in the presence of chemical substance/The level of expressed mRNA in the absence of chemical substance,yeast gene YGR055W,1.5
same,The level of expressed mRNA in the presence of chemical substance/The level of expressed mRNA in the absence of chemical substance,yeast gene YGR065C,1.1
same,The level of expressed mRNA in the presence of chemical substance/The level of expressed mRNA in the absence of chemical substance,yeast gene YGR082W,1.3
same,The level of expressed mRNA in the presence of chemical substance/The level of expressed mRNA in the absence of chemical substance,yeast gene YGR096W,0.8
same,The level of expressed mRNA in the presence of chemical substance/The level of expressed mRNA in the absence of chemical substance,yeast gene YGR138C,0.7
same,The level of expressed mRNA in the presence of chemical substance/The level of expressed mRNA in the absence of chemical substance,yeast gene YGR191W,1.6
same,The level of expressed mRNA in the presence of chemical substance/The level of expressed mRNA in the absence of chemical substance,yeast gene YGR197C,1.1
same,The level of expressed mRNA in the presence of chemical substance/The level of expressed mRNA in the absence of chemical substance,yeast gene YGR224W,0.8
same,The level of expressed mRNA in the presence of chemical substance/The level of expressed mRNA in the absence of chemical substance,yeast gene YGR260W,1.3
same,The level of expressed mRNA in the presence of chemical substance/The level of expressed mRNA in the absence of chemical substance,yeast gene YGR281W,0.7
